# Measurements as given in patent US9119882B2, “Volatile distillate by-product of mint oil that promotes absorption and/or bioavailability of compounds of bio-medical and nutritional interest” (Flavor Liquidating (G) Corporation (new name of A.M. Todd …, priority 2008, dated 2015).
# Test system: Caco-2 cells
# Assay: Pilot study: uptake of CoQ10 into Caco-2 cells
# Type: in vitro ADME, human
# Settings: 1 millimolar CoQ10, two hours, control set at 100%
# Protocol: An initial pilot study established that VDMO improved the uptake of CoQ10 into Caco-2 cells. Caco-2 cells were grown for 15 days in the bottom of 24-well plastic culture dishes and then were exposed to 1 millimolar concentrations of CoQ10 mixed with 5%, 1% or no VDMO. The VDMO utilized here was as analyzed in Table 3b. Cells were returned to the incubator for two hours, then cells and media were separated by centrifugation. The cellular fraction was washed and centrifuged a second time and the amount of CoQ10 inside the cells was determined by Liquid Chromatography Mass Spectrometry. The experiment was repeated twice; the absorption in the control group was set to 100% and treatments were compared accordingly; results are shown in Table 4.
smiles,measurement,value
"COC1=C(OC)C(=O)C(C/C=C(\C)CC/C=C(\C)CC/C=C(\C)CC/C=C(\C)CC/C=C(\C)CC/C=C(\C)CC/C=C(\C)CC/C=C(\C)CC/C=C(\C)CCC=C(C)C)=C(C)C1=O [CoQ10 + no VDMO; Control, Coenzyme Q10 (ubiquinone; CoQ10)]",Absorption (%) Experiment 1,100 ± 6.1%
same,Absorption (%) Experiment 2,100 ± 0.3%
